These results are taken from patent US10363314B2, “Sprayable topical carrier and composition comprising phosphatidylcholine” (LIPIDOR AB, priority 2013, dated 2019).

This data set deals with human skin. In words: Erythema occurrence upon treating skin with carriers under occlusion for 12 days, first study. Format: in vivo. The note with it: 33 healthy volunteers, occlusive conditions, applied 5 days per week, scored after 12 days, index 0-4. On the procedure:
The effect of prior art pharmaceutical compositions and of carriers and compositions of the invention on human skin was observed by visual inspection or by determining erythema index by using DermaLab Combo and DSM II Colormeter (Cortex Technology, Denmark).
Erythema occurrence was assessed in two human studies. In the first study the skin irritation potential of different lipid carriers was evaluated. Thirty-three healthy volunteers received the test formulations and a positive and negative control under occlusive conditions. The test articles were applied 5 days per week and the irritation grade was scored after 12 days according to a four-level assessment index (0=No reaction; 1=Slight diffuse, partial erythema; 2=Clear, sharply demarcated erythema; 3=Severe erythema with induration; 4=Severe erythema with induration and/or epidermal defect).

SMILES strings stand for the structures.

`CCCCCCCCCCCCOS(=O)(=O)[O-].[Na+]` [Pos. control, Sodium dodecylsulfate]: the “Mean erythema assessment index” value is listed as 3.0.
